Experimental data published in patent publication US11993581B2, “Pyridazine compounds for inhibiting Nav1.8” (Lieber Institute, Inc., priority 2018, dated 2024).

Biological target: T1, human Nav1.8 (hNav1.8) ion channel (Homo sapiens, UniProt Q9Y5Y9)
T1 construct: expressed in transfected cells
Assay: Nav1.8 inhibition, estimated IC50 (Nav1.8 fluorescence, PatchXpress and/or IonFlux HT automated patch clamp assay)
Format: cell-based
Settings: HEK293 cells stably expressing hNav1.8; determined using one or more of the described methods; read-out: Activity range (estimated IC50)
Experimental: The ability of pyridine carboxamide derivatives exemplified above to inhibit the Nav1.8 channel was determined using one or more of the methods described below.
HEK Nav1.8 β1/β2 Stably Expressing Cell Line
A HEK293 cell line stably expressing the human Nav1.8 (hNav1.8) ion channel with β1/β2 subunits was constructed. The cell line is suitable for IC50 determination in fluorescence and electrophysiological based assays. It is also suitable to conduct mechanism of action pharmacology studies in electrophysiological assays. HEK293 Nav1.8 cells are grown as adherent monolayers in DMEM/high glucose media, 10% fetal bovine serum, Na pyruvate (2 mM), Hepes (10 mM) with selection agents G418 (400 mg/L) and puromycin (0.5 mg/L) at 37 degrees C., 10% CO2.
Nav1.8 Fluorescence Inhibition Assay
Compounds were made up to or supplied as a 10-mM stock solution using DMSO as the vehicle. Concentration-response curves were generated using a Matrix multichannel pipettor. Compound source plates were made by diluting 10 mM compound stocks to create 500 μM (100×) solutions in DMSO in 96-well v-bottom plates. Compounds were then serially diluted in 100% DMSO to generate a 5 point, 4-fold dilution scheme dose response curve. 2 μL of the 100× dose response curves were then added to preincubation and stimulation assay plates. 100 μL of pre-incubation buffer and 200 μl of stimulation buffer was then added to the plates resulting in a final assay test concentration range of 5 μM to 0.02 μM with a final DMSO concentration of 1%.
On the day of assay, plates were washed to remove cell culture media using 2K EBSS buffer (135 mM NaCl, 2 mM KCl, 5 mM Glucose, 2 mM CaCl2, 1 mM MgCl2, 10 mM HEPES, pH 7.4). The Na-sensitive fluorescent dye, Asante Natrium Green-2 (ANG-2) was incubated for 60 min to allow equilibration and then washed with 2K EBSS. Plates were then transferred to a fluorescence plate reader (FLIPR™, Molecular Devices) for fluorescence measurement using an excitation wavelength of 490 nm and an emission wavelength of 565 nm. Compounds were pre-incubated for 5 min at final test concentration in the presence of ouabain (30 μM) to inhibit Na+ efflux through Na+/K+ exchanger. Following the pre-incubation phase, hNav1.8 channels were stimulated with 10 μM of the pyrethroid deltamethrin to prevent channel inactivation. The assay was run for 15 minutes with vehicle and 30 μM tetracaine serving as negative and positive controls, respectively. The peak change in fluorescence relative to negative and positive control wells was calculated and fit with a logistic equation to determine IC50.
PatchXpress Nav1.8 Inhibition Assay
HEK-Nav1.8 β1/β2 cells were recorded in whole cell patch-clamp using the PatchXpress automated patch clamp platforms (Molecular Devices). Cell suspensions were obtained by trypsinization of adherent monolayers, followed by gentle rocking for minimally 30 min. Compounds were prepared from 10 mM DMSO stocks.
Nav1.8 channel variants were evaluated using Protocol 1 in which cells were initially voltage clamped at a holding potential of −100 mV to maintain Nav1.8 in a closed resting state. After current amplitude becomes stable, the mid-point voltage of steady state inactivation was determined for each cell using a series of 5 sec conditioning steps to increasingly depolarized voltages (−100 to 0 mV) The holding potential was then reset to a voltage that produces ˜50% inactivation (Vhalf-set automatically via PatchXpress scripts) so that closed and inactivated channel inhibition could be assessed. Protocol 1 was run at a frequency of 0.1 Hz until current amplitude is steady (automatically determined by PatchXpress scripts). The effect of test reagent on Nav current amplitude was monitored using custom PatchXpress stability scripts which determines the timing of compound addition and washout.
Data were processed and analyzed using DataXpress 2.0 (Molecular Devices). […]

T1 sequence (Q9Y5Y9 whole entry): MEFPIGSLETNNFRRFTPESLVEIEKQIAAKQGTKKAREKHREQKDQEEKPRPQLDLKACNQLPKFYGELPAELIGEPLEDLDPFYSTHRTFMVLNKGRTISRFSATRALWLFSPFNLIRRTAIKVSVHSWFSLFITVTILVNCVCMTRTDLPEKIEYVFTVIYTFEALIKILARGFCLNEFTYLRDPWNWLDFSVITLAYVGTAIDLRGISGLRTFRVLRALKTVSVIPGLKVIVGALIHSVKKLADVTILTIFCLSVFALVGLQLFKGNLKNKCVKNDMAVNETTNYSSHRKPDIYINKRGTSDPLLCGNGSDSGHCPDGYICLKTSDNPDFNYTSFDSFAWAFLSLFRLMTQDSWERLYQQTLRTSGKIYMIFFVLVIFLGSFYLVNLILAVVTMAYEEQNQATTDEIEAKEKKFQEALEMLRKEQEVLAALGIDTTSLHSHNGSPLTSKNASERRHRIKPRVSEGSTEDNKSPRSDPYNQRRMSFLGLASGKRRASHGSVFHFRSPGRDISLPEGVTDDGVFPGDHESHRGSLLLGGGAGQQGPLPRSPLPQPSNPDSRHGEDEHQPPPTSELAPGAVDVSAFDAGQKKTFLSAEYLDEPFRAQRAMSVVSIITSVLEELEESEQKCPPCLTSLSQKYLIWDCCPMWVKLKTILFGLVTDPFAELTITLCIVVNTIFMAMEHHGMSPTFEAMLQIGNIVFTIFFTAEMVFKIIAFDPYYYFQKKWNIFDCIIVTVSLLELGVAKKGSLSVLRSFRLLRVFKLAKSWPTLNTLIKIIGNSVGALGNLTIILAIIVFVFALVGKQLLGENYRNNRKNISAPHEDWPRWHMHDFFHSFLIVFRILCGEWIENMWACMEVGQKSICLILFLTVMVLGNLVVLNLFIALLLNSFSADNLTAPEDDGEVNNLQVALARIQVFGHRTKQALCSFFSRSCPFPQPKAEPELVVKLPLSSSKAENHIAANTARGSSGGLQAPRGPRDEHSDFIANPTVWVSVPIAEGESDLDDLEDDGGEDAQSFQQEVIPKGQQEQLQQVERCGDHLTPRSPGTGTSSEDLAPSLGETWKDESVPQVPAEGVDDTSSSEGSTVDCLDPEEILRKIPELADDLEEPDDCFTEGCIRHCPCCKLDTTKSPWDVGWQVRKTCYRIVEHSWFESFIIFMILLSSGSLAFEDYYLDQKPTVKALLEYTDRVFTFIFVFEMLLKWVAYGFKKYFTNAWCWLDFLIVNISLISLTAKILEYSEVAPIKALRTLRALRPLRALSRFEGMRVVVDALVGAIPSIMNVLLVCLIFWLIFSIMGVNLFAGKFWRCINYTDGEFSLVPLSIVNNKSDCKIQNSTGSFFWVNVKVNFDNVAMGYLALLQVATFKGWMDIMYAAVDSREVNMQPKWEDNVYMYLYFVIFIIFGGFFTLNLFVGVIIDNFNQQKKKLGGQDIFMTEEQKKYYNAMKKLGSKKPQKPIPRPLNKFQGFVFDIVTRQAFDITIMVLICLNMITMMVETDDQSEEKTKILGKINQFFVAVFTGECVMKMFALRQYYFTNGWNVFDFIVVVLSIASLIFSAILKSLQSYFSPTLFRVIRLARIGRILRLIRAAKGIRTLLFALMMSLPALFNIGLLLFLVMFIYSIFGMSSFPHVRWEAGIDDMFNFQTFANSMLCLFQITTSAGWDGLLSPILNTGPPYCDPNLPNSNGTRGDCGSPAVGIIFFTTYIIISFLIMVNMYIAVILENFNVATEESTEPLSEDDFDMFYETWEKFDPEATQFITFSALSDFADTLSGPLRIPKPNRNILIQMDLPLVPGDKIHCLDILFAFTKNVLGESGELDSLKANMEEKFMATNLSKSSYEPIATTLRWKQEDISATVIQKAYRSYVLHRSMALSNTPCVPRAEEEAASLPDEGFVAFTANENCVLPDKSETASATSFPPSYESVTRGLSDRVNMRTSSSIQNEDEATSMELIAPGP
T1 sequence (Q07699 19-218 partner): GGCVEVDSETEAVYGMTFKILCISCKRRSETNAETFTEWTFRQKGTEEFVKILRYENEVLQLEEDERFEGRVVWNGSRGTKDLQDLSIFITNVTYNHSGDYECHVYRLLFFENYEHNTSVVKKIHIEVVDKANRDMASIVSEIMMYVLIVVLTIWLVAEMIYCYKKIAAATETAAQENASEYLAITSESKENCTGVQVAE

Row | Compound | IC50 [µM]
1 | 6-[4-(difluoromethoxy)phenyl]-N-[(2-morpholinophenyl)methyl]pyridazine-4-carboxamide [Example 56] | < 0.5
2 | O=C(NCc1cccnc1N1CCOCC1)c1cnnc(-c2ccc(OCC3CC3)c(Cl)c2)c1 [Example 1, 6-(3-chloro-4-(cyclopropylmethoxy)phenyl)-N-((2-morpholinopyridin-3-yl)methyl)pyridazine-4-carboxamide] | < 0.5
3 | O=C(NCc1cccnc1N1CCOCC1)c1cnnc(-c2ccc(Cl)nc2)c1 [Example 2, 6-(6-chloro-3-pyridyl)-N-[(2-morpholino-3-pyridyl)methyl]pyridazine-4-carboxamide] | > 1
4 | O=C(NCc1cccnc1N1CCOCC1)c1cnnc(-c2cccc(Cl)c2)c1 [Example 3, 6-(3-chlorophenyl)-N-[(2-morpholino-3-pyridyl)methyl]pyridazine-4-carboxamide] | 0.5 to 1
5 | Cc1cc(Cl)ccc1-c1cc(C(=O)NCc2cccnc2N2CCOCC2)cnn1 [Example 4, 6-(4-chloro-2-methyl-phenyl)-N-[(2-morpholino-3-pyridyl)methyl]pyridazine-4-carboxamide] | < 0.5
6 | CC(C)COc1ccc(-c2cc(C(=O)NCc3cccnc3N3CCOCC3)cnn2)cc1 [Example 5, 6-(4-isobutoxyphenyl)-N-[(2-morpholino-3-pyridyl)methyl]pyridazine-4-carboxamide] | < 0.5
7 | O=C(NCc1cccnc1N1CCOCC1)c1cnnc(-c2ccc(OC(F)(F)F)cc2)c1 [Example 6, N-[(2-morpholino-3-pyridyl)methyl]-6-[4-(trifluoromethoxy)phenyl]pyridazine-4-carboxamide] | < 0.5
8 | O=C(NCc1cccnc1N1CCOCC1)c1cnnc(-c2ccc(OCC(F)(F)F)cc2)c1 [Example 7, N-[(2-morpholino-3-pyridyl)methyl]-6-[4-(2,2,2-trifluoroethoxy)phenyl]pyridazine-4-carboxamide] | < 0.5
9 | O=C(NCc1cccnc1N1CCOCC1)c1cnnc(-c2ccc(OCC3CC3)cc2)c1 [Example 8, 6-[4-(cyclopropylmethoxy)phenyl]-N-[(2-morpholino-3-pyridyl)methyl]pyridazine-4-carboxamide] | < 0.5
10 | CCOc1ccc(-c2cc(C(=O)NCc3cccnc3N3CCOCC3)cnn2)cc1Cl [Example 9, 6-(3-chloro-4-ethoxy-phenyl)-N-[(2-morpholino-3-pyridyl)methyl]pyridazine-4-carboxamide] | < 0.5
11 | CCCOc1ccc(-c2cc(C(=O)NCc3cccnc3N3CCOCC3)cnn2)cc1Cl [Example 10, 6-(3-chloro-4-propoxy-phenyl)-N-[(2-morpholino-3-pyridyl)methyl]pyridazine-4-carboxamide] | < 0.5
12 | CC(C)Oc1ccc(-c2cc(C(=O)NCc3cccnc3N3CCOCC3)cnn2)cc1Cl [Example 11, 6-(3-chloro-4-isopropoxy-phenyl)-N-[(2-morpholino-3-pyridyl)methyl]pyridazine-4-carboxamide] | < 0.5
13 | CCOc1ccc(-c2cc(C(=O)NCc3cccnc3N3CCOCC3)cnn2)cc1F [Example 12, 6-(4-ethoxy-3-fluoro-phenyl)-N-[(2-morpholino-3-pyridyl)methyl]pyridazine-4-carboxamide] | < 0.5
14 | CCCOc1ccc(-c2cc(C(=O)NCc3cccnc3N3CCOCC3)cnn2)cc1F [Example 13, 6-(3-fluoro-4-propoxy-phenyl)-N-[(2-morpholino-3-pyridyl)methyl]pyridazine-4-carboxamide] | < 0.5
15 | CC(C)Oc1ccc(-c2cc(C(=O)NCc3cccnc3N3CCOCC3)cnn2)cc1F [Example 14, 6-(3-fluoro-4-isopropoxy-phenyl)-N-[(2-morpholino-3-pyridyl)methyl]pyridazine-4-carboxamide] | < 0.5
16 | O=C(NCc1cccnc1N1CCOCC1)c1cnnc(-c2ccc(OC3CC3)cc2)c1 [Example 15, 6-[4-(cyclopropoxy)phenyl]-N-[(2-morpholino-3-pyridyl)methyl]pyridazine-4-carboxamide] | < 0.5
17 | O=C(NCc1cccnc1N1CCOCC1)c1cnnc(-c2ccc(OCC3CC3)nc2)c1 [Example 16, 6-[6-(cyclopropylmethoxy)-3-pyridyl]-N-[(2-morpholino-3-pyridyl)methyl]pyridazine-4-carboxamide] | < 0.5
18 | O=C(NCc1cccnc1N1CCOCC1)c1cnnc(-c2ccc(Cl)cc2)c1 [Example 17, 6-(4-chlorophenyl)-N-[(2-morpholino-3-pyridyl)methyl]pyridazine-4-carboxamide] | > 1
19 | O=C(NCc1cccnc1N1CC2(COC2)C1)c1cnnc(-c2ccc(OCC3CC3)c(Cl)c2)c1 [Example 19, 6-[3-chloro-4-(cyclopropylmethoxy)phenyl]-N-[[2-(2-oxa-6-azaspiro[3.3]heptan-6-yl)-3-pyridyl]methyl]pyridazine-4-carboxamide] | < 0.5
20 | O=C(NCc1cccnc1OCC(F)(F)F)c1cnnc(-c2ccc(OCC3CC3)c(Cl)c2)c1 [Example 20, 6-[3-chloro-4-(cyclopropylmethoxy)phenyl]-N-[[2-(2,2,2-trifluoroethoxy)-3-pyridyl]methyl]pyridazine-4-carboxamide] | < 0.5
21 | O=C(NCc1cccnc1N1CCCOCC1)c1cnnc(-c2ccc(OCC3CC3)c(Cl)c2)c1 [Example 21, 6-[3-chloro-4-(cyclopropylmethoxy)phenyl]-N-[[2-(1,4-oxazepan-4-yl)-3-pyridyl]methyl]pyridazine-4-carboxamide] | < 0.5
22 | CC1CN(c2ncccc2CNC(=O)c2cnnc(-c3ccc(OCC4CC4)c(Cl)c3)c2)CCO1 (stereo not shown) [Example 22, 6-[3-chloro-4-(cyclopropylmethoxy)phenyl]-N-[[2-(2-methylmorpholin-4-yl)-3-pyridyl]methyl]pyridazine-4-carboxamide] | < 0.5
23 | CC1COCCN1c1ncccc1CNC(=O)c1cnnc(-c2ccc(OCC3CC3)c(Cl)c2)c1 (stereo not shown) [Example 23, 6-[3-chloro-4-(cyclopropylmethoxy)phenyl]-N-[[2-(3-methylmorpholin-4-yl)-3-pyridyl]methyl]pyridazine-4-carboxamide] | < 0.5
24 | Cc1ccc(CNC(=O)c2cnnc(-c3ccc(OCC4CC4)c(Cl)c3)c2)c(N2CCOCC2)n1 [Example 24, 6-[3-chloro-4-(cyclopropylmethoxy)phenyl]-N-[(6-methyl-2-morpholino-3-pyridyl)methyl]pyridazine-4-carboxamide] | < 0.5
25 | Cc1ccnc(N2CCOCC2)c1CNC(=O)c1cnnc(-c2ccc(OCC3CC3)c(Cl)c2)c1 [Example 25, 6-[3-chloro-4-(cyclopropylmethoxy)phenyl]-N-[(4-methyl-2-morpholino-3-pyridyl)methyl]pyridazine-4-carboxamide] | < 0.5
26 | Cc1cnc(N2CCOCC2)c(CNC(=O)c2cnnc(-c3ccc(OCC4CC4)c(Cl)c3)c2)c1 [Example 26, 6-[3-chloro-4-(cyclopropylmethoxy)phenyl]-N-[(5-methyl-2-morpholino-3-pyridyl)methyl]pyridazine-4-carboxamide] | > 1
27 | O=C(NCc1ccccc1N1CCOCC1)c1cnnc(-c2ccc(OCC3CC3)c(Cl)c2)c1 [Example 27, 6-[3-chloro-4-(cyclopropylmethoxy)phenyl]-N-[(2-morpholinophenyl)methyl]pyridazine-4-carboxamide] | < 0.5
28 | CN(C)c1ncccc1CNC(=O)c1cnnc(-c2ccc(OCC3CC3)c(Cl)c2)c1 [Example 28, 6-[3-chloro-4-(cyclopropylmethoxy)phenyl]-N-[[2-(dimethylamino)-3-pyridyl]methyl]pyridazine-4-carboxamide] | < 0.5
